Measurements taken from PMC11938273 (Journal of Chemical Information and Modeling, 2025).
Counter-ions that a name gives are not always drawn.

Conditions: mouse, in vivo
For `COC(=O)[C@H]1[C@@H](c2ccc(I)cc2)C[C@@H]2CC[C@H]1N2C/C=C/I` [Me@IPICIT, Methyl (1R,2S,3S,5S)-3-(4-iodophenyl)-8-[(2E)-3-iodo-2-propen-1-yl]-8-azabicyclo [3.2.1]octane-2-carboxylate], the CNS status was “Positive”.

Conditions: in vivo; cited from earlier work
In the case of `CCC(C)N(C)C(=O)c1cc2ccccc2c(-c2ccccc2Cl)n1` (stereo not drawn) [PK11195, N-(sec-butyl)-1-(2-chlorophenyl)-N-methylisoquinoline3-carboxamide], the CNS status is listed as “Positive”. In the case of `CCC(=O)OC1CCNCC1` [PMP, piperidin-4-yl propionate], the CNS status is given as “Positive”. For `CCC(=O)NS(=O)(=O)c1ccc(-c2c(-c3ccccc3)noc2C)cc1` [Parecoxib, N-{[4-(5-Methyl-3-phenyl-1,2-oxazol4-yl)phenyl]sulfonyl}propanamide], the CNS status is listed as “Negative”. In the case of `CNC(=O)Oc1ccc2c(c1)[C@]1(C)CCN(C)[C@@H]1N2C` [Physostigmine, (3aS,8aR)-1,3a,8-trimethyl-1,2,3,3a,8,8a-hexahydropyrrolo[2,3-b]indol-5-yl methylcarbamate], the CNS status is given as “Positive”. For `CN/C(=C\[N+](=O)[O-])NCCSCc1ccc(CN(C)C)o1` [Ranitidine, (E)-N-{2-[({5-[(Dimethylamino)methyl]-2-furyl}methyl)sulfanyl]ethyl}-N′-methyl-2-nitro-1,1-ethenediamine], the CNS status is given as “Efflux transporter substrate”. In the case of `COC(=O)c1ccccc1-c1c2ccc(=N)cc-2oc2cc(N)ccc12` [Rhodamine 123, 6-Amino-9-[2-(methoxycarbonyl)phenyl]-3H-xanthen-3-iminium], the CNS status is listed as “Efflux transporter substrate”. In the case of `CC(C)c1nc(CN(C)C(=O)N[C@H](C(=O)N[C@@H](Cc2ccccc2)C[C@H](O)[C@H](Cc2ccccc2)NC(=O)OCc2cncs2)C(C)C)cs1` [Ritonavir, (1E,2S)-N-[(2S,4S,5S)-4-Hydroxy-5-{(E)-[hydroxy(1,3-thiazol-5-ylmethoxy)methylene]amino}-1,6-diphenyl-2-hexanyl]-2-[(E)-(hydroxy{[(2-isopropyl-1,3-thiazol-4-yl)methyl](methyl)amino}methylene)amino]-3-methylbutanimidic acid], the CNS status is listed as “Efflux transporter substrate”. In the case of `CS(=O)(=O)c1ccc(C2=C(c3ccccc3)C(=O)OC2)cc1` [Rofecoxib, 4-[4-(Methylsulfonyl)phenyl]-3-phenyl2(5H)-furanone], the CNS status is given as “Negative”. For `COc1ccc(C2CNC(=O)C2)cc1OC1CCCC1` (stereo not drawn) [Rolipram, 4-(3-(Cyclopentyloxy)-4-methoxyphenyl)pyrrolidin-2-one], the CNS status is listed as “Positive”. In the case of `CC[C@H]1OC(=O)[C@H](C)[C@@H](O[C@H]2C[C@@](C)(OC)[C@@H](O)[C@H](C)O2)[C@H](C)[C@@H](O[C@@H]2O[C@H](C)C[C@H](N(C)C)[C@H]2O)[C@](C)(O)C[C@@H](C)/C(=N\OCOCCOC)[C@H](C)[C@@H](O)[C@]1(C)O` [Roxithromycin], the CNS status is listed as “Negative”. In the case of `CN1CCc2cc(Cl)c(O)cc2[C@@H](c2ccccc2)C1` [SCH-23390 hydrochloride, (R)-8-chloro-3-methyl-5-phenyl-2,3,4,5-tetrahydro1H-benzo[d]azepin-7-ol], the CNS status is given as “Positive”. For `COCC1=C(C(=O)OC)[C@H](c2ccc(F)c(F)c2)N(C(=O)NCCCN2CCC(c3cccc(NC(C)=O)c3)CC2)C(=O)N1` [SNAP7941, methyl 3-((3-(4-(3-acetamidophenyl)piperidin-1-yl)propyl)carbamoyl)-4-(3,4-difluorophenyl)-6-(methoxymethyl)-2-oxo-1,2,3,4-tetrahydropyrimidine-5-carboxylate], the CNS status is listed as “Efflux transporter substrate”. In the case of `Cc1nc2n(c(=O)c1CCN1CCC(C(=O)c3ccc(F)cc3)CC1)CCS2` [Setoperone, 6-(2-(4-(4-Fluorobenzoyl)piperidin-1-yl)ethyl)-7-methyl-2H-thiazolo[3,2-a]pyrimidin-5(3H)-one], the CNS status is given as “Positive”. For `N[C@@H](CC(=O)N1CCn2c(nnc2C(F)(F)F)C1)Cc1cc(F)c(F)cc1F` [Sitagliptin, (3R)-3-Amino-1-[3-(trifluoromethyl)-5,6-dihydro[1,2,4]triazolo[4,3-a]pyrazin-7(8H)-yl]-4-(2,4,5-trifluorophenyl)-1-butanone], the CNS status is given as “Negative”. In the case of `CC(C)NCC(O)c1ccc(NS(C)(=O)=O)cc1` (stereo not drawn) [Sotalol, N-{4-[1-Hydroxy-2-(isopropylamino)ethyl]phenyl}methanesulfonamide], the CNS status is given as “Negative”. In the case of `COc1cc2c(cc1OC)CN(CCc1ccc(NC(=O)c3cc(OC)c(OC)cc3NC(=O)c3cnc4ccccc4c3)cc1)CC2` [Tariquidar, N-[2-({4-[2-(6,7-Dimethoxy-3,4-dihydro-2(1H)-isoquinolinyl)ethyl]phenyl}carbamoyl)-4,5-dimethoxyphenyl]-3-quinolinecarboxamide], the CNS status is given as “Efflux transporter substrate”. In the case of `COc1cc([C@@H]2c3cc4c(cc3[C@@H](O[C@@H]3O[C@@H]5CO[C@@H](c6cccs6)O[C@H]5[C@H](O)[C@H]3O)[C@H]3COC(=O)[C@H]23)OCO4)cc(OC)c1O` [Teniposide, (5S,5aR,8aR,9R)-9-(4-Hydroxy-3,5-dimethoxyphenyl)-8-oxo-5,5a,6,8,8a,9-hexahydrofuro[3′,4′:6,7]naphtho[2,3-d][1,3]dioxol-5-yl 4,6-O-(2-thienylmethylene)-β-D-glucopyranoside], the CNS status is given as “Efflux transporter substrate”. In the case of `Cc1ccc(C(=O)c2cc(O)c(O)c([N+](=O)[O-])c2)cc1` [Tolcapone, (3,4-dihydroxy-5-nitrophenyl)(p-tolyl)methanone], the CNS status is given as “Negative”. In the case of `CC[C@]1(O)C[C@@H]2CN(CCc3c([nH]c4ccccc34)[C@@](C(=O)OC)(c3cc4c(cc3OC)N(C)[C@H]3[C@@](O)(C(=O)OC)[C@H](OC(C)=O)[C@]5(CC)C=CCN6CC[C@]43[C@@H]65)C2)C1` [Vinblastine, Dimethyl (2β,3β,4β,5α,12β,19α)-15-[(5S,9S)-5-ethyl-5-hydroxy-9-(methoxycarbonyl)-1,4,5,6,7,8,9,10-octahydro-2 H-3,7-methanoazacycloundecino [5,4-b]indol-9-yl]-3-hydroxy-16-methoxy-1-methyl-6,7-didehydroaspidospermidine3,4-dicarboxylate], the CNS status is given as “Efflux transporter substrate”. For `CC[C@]1(O)C[C@H]2CN(CCc3c([nH]c4ccccc34)[C@@](C(=O)OC)(c3cc4c(cc3OC)N(C=O)[C@H]3[C@@](O)(C(=O)OC)[C@H](OC(C)=O)[C@]5(CC)C=CCN6CC[C@]43[C@@H]65)C2)C1` [Vincristine, (3aR,3a1R,4R,5S,5aR,10bR)-Methyl 4-acetoxy-3a-ethyl-9-((5S,7S,9S)-5-ethyl-5-hydroxy-9-(methoxycarbonyl)-2,4,5,6,7,8,9,10-octahydro-1 H-3,7-methano[1]azacycloundecino[5,4-b]indol-9-yl)-6-formyl-5-hydroxy-8-methoxy3a,3a1,4,5,5a,6,11,12-octahydro-1 H-indolizino[8,1-cd]carbazole-5-carboxylate], the CNS status is given as “Efflux transporter substrate”. In the case of `COc1ccccc1N1CCN(CCN(C(=O)C2CCCCC2)c2ccccn2)CC1` [WAY-100635, N-(2-(4-(2-methoxyphenyl)piperazin-1-yl)ethyl)-N-(pyridin-2-yl)], the CNS status is listed as “Positive”. In the case of `COC(=O)[C@H]1[C@@H](c2ccc(F)cc2)C[C@@H]2CC[C@H]1N2C/C=C/I` [beta-CFT, (1R,2S,3S,5S)-methyl-3-(4-fluorophenyl)-8-((E)-3-iodoallyl)-8-azabicyclo[3.2.1]octane-2-carboxylate], the CNS status is listed as “Positive”. For `COC(=O)[C@H]1[C@@H](c2ccc(I)cc2)C[C@@H]2CC[C@H]1N2C` [beta-CIT, (1R,2S,3S,5S)-methyl-3-(4-iodophenyl)-8-methyl-8-azabicyclo [3.2.1]octane-2-carboxylate], the CNS status is listed as “Positive”. For `CN1[C@H]2CC[C@@H]1[C@@H](c1cc(-c3ccccc3)no1)[C@@H](c1ccc(Cl)cc1)C2` [beta-CPPIT, 5-((1R,2S,3S,5S)-3-(4-chlorophenyl)-8-methyl-8-azabicyclo[3.2.1]octan-2-yl)-3-phenylisoxazole], the CNS status is given as “Positive”. In the case of `CNC(C)C(O)c1cccc(O)c1` (stereo not drawn) [mHED, 3-[1-Hydroxy-2-(methylamino)propyl]phenol], the CNS status is given as “Negative”. In the case of Teicoplanin, the CNS status is given as “Negative”.
